From the NIST ThermoML archive (doi:10.1016/j.jct.2007.07.005)
± gives the expanded uncertainty stated by the source.

Assay: xn = mol fraction of the nth substance listed
Conditions: Fluid (supercritical or subcritical phases), vibrating tube

CCCCCO [pentan-1-ol] + O=C=O
mass density (312.96 K, 512 kPa, x2 = 0): 799.65 ± 0.43 kg/m3
mass density (312.96 K, 1022 kPa, x2 = 0): 800.04 ± 0.43 kg/m3
mass density (312.96 K, 1998 kPa, x2 = 0): 800.77 ± 0.44 kg/m3
mass density (312.96 K, 3005 kPa, x2 = 0): 801.53 ± 0.44 kg/m3
mass density (312.96 K, 4003 kPa, x2 = 0): 802.28 ± 0.44 kg/m3
mass density (312.96 K, 5002 kPa, x2 = 0): 803.02 ± 0.44 kg/m3
mass density (312.96 K, 6018 kPa, x2 = 0): 803.76 ± 0.44 kg/m3
mass density (312.96 K, 6994 kPa, x2 = 0): 804.49 ± 0.44 kg/m3
mass density (312.96 K, 8008 kPa, x2 = 0): 805.21 ± 0.44 kg/m3
mass density (312.96 K, 9005 kPa, x2 = 0): 805.93 ± 0.44 kg/m3
mass density (312.96 K, 10008 kPa, x2 = 0): 806.66 ± 0.44 kg/m3
mass density (312.96 K, 11008 kPa, x2 = 0): 807.37 ± 0.44 kg/m3
mass density (312.96 K, 12000 kPa, x2 = 0): 808.07 ± 0.44 kg/m3
mass density (312.96 K, 13024 kPa, x2 = 0): 808.78 ± 0.44 kg/m3
mass density (312.96 K, 13987 kPa, x2 = 0): 809.45 ± 0.44 kg/m3
mass density (312.96 K, 15014 kPa, x2 = 0): 810.14 ± 0.45 kg/m3
mass density (312.96 K, 15991 kPa, x2 = 0): 810.8 ± 0.45 kg/m3
mass density (312.96 K, 17019 kPa, x2 = 0): 811.48 ± 0.45 kg/m3
mass density (312.96 K, 17991 kPa, x2 = 0): 812.12 ± 0.45 kg/m3
mass density (312.96 K, 19007 kPa, x2 = 0): 812.79 ± 0.45 kg/m3
mass density (312.96 K, 19992 kPa, x2 = 0): 813.44 ± 0.45 kg/m3
mass density (312.96 K, 21031 kPa, x2 = 0): 814.1 ± 0.45 kg/m3
mass density (312.96 K, 22041 kPa, x2 = 0): 814.76 ± 0.45 kg/m3
mass density (312.96 K, 23014 kPa, x2 = 0): 815.41 ± 0.45 kg/m3
mass density (312.96 K, 24003 kPa, x2 = 0): 816.04 ± 0.45 kg/m3
mass density (312.96 K, 25037 kPa, x2 = 0): 816.73 ± 0.45 kg/m3
mass density (313.09 K, 6030 kPa, x2 = 0.3624): 824 ± 0.44 kg/m3
mass density (313.09 K, 6997 kPa, x2 = 0.3624): 825.21 ± 0.44 kg/m3
mass density (313.09 K, 8012 kPa, x2 = 0.3624): 826.4 ± 0.44 kg/m3
mass density (313.09 K, 9018 kPa, x2 = 0.3624): 827.51 ± 0.44 kg/m3
mass density (313.09 K, 10006 kPa, x2 = 0.3624): 828.5 ± 0.44 kg/m3
mass density (313.09 K, 11027 kPa, x2 = 0.3624): 829.51 ± 0.44 kg/m3
mass density (313.09 K, 12043 kPa, x2 = 0.3624): 830.52 ± 0.44 kg/m3
mass density (313.09 K, 13029 kPa, x2 = 0.3624): 831.45 ± 0.45 kg/m3
mass density (313.09 K, 13978 kPa, x2 = 0.3624): 832.37 ± 0.45 kg/m3
mass density (313.09 K, 15011 kPa, x2 = 0.3624): 833.36 ± 0.45 kg/m3
mass density (313.09 K, 16002 kPa, x2 = 0.3624): 834.27 ± 0.45 kg/m3
mass density (313.09 K, 17008 kPa, x2 = 0.3624): 835.17 ± 0.45 kg/m3
mass density (313.09 K, 17989 kPa, x2 = 0.3624): 836.08 ± 0.45 kg/m3
mass density (313.09 K, 19002 kPa, x2 = 0.3624): 837 ± 0.45 kg/m3
mass density (313.09 K, 20008 kPa, x2 = 0.3624): 837.88 ± 0.45 kg/m3
mass density (313.09 K, 21025 kPa, x2 = 0.3624): 838.76 ± 0.45 kg/m3
mass density (313.09 K, 21983 kPa, x2 = 0.3624): 839.58 ± 0.45 kg/m3
mass density (313.09 K, 23039 kPa, x2 = 0.3624): 840.51 ± 0.45 kg/m3
mass density (313.09 K, 24001 kPa, x2 = 0.3624): 841.34 ± 0.45 kg/m3
mass density (313.1 K, 7022 kPa, x2 = 0.4651): 831.11 ± 0.44 kg/m3
mass density (313.1 K, 8019 kPa, x2 = 0.4651): 832.63 ± 0.44 kg/m3
mass density (313.1 K, 9041 kPa, x2 = 0.4651): 834.14 ± 0.44 kg/m3
mass density (313.1 K, 10006 kPa, x2 = 0.8067): 827.85 ± 0.51 kg/m3
mass density (313.1 K, 10013 kPa, x2 = 0.4651): 835.54 ± 0.44 kg/m3
mass density (313.1 K, 10035 kPa, x2 = 0.9757): 716.11 ± 0.96 kg/m3
mass density (313.1 K, 11006 kPa, x2 = 0.8067): 834.45 ± 0.49 kg/m3
mass density (313.1 K, 11016 kPa, x2 = 0.4651): 836.96 ± 0.45 kg/m3
mass density (313.1 K, 11020 kPa, x2 = 0.9757): 742.56 ± 0.96 kg/m3
mass density (313.1 K, 11992 kPa, x2 = 0.9757): 762.5 ± 0.78 kg/m3
mass density (313.1 K, 12018 kPa, x2 = 0.4651): 838.32 ± 0.45 kg/m3
mass density (313.1 K, 12019 kPa, x2 = 0.8067): 840.12 ± 0.48 kg/m3
mass density (313.1 K, 13002 kPa, x2 = 0.8067): 845.06 ± 0.48 kg/m3
mass density (313.1 K, 13005 kPa, x2 = 0.4651): 839.67 ± 0.45 kg/m3
mass density (313.1 K, 13014 kPa, x2 = 0.9757): 779.62 ± 0.7 kg/m3
mass density (313.1 K, 13996 kPa, x2 = 0.8067): 849.67 ± 0.47 kg/m3
mass density (313.1 K, 14022 kPa, x2 = 0.9757): 793.9 ± 0.65 kg/m3
mass density (313.1 K, 14035 kPa, x2 = 0.4651): 841.03 ± 0.45 kg/m3
mass density (313.1 K, 15002 kPa, x2 = 0.9757): 806.06 ± 0.62 kg/m3
mass density (313.1 K, 15010 kPa, x2 = 0.4651): 842.33 ± 0.45 kg/m3
mass density (313.1 K, 15017 kPa, x2 = 0.8067): 854.05 ± 0.47 kg/m3
mass density (313.1 K, 16001 kPa, x2 = 0.9757): 817.16 ± 0.6 kg/m3
mass density (313.1 K, 16018 kPa, x2 = 0.4651): 843.63 ± 0.45 kg/m3
mass density (313.1 K, 16028 kPa, x2 = 0.8067): 858.11 ± 0.47 kg/m3
mass density (313.1 K, 17009 kPa, x2 = 0.8067): 861.86 ± 0.47 kg/m3
mass density (313.1 K, 17011 kPa, x2 = 0.4651): 844.89 ± 0.45 kg/m3
mass density (313.1 K, 17026 kPa, x2 = 0.9757): 827.46 ± 0.58 kg/m3
mass density (313.1 K, 17998 kPa, x2 = 0.9757): 836.37 ± 0.56 kg/m3
mass density (313.1 K, 18010 kPa, x2 = 0.4651): 846.15 ± 0.45 kg/m3
mass density (313.1 K, 18017 kPa, x2 = 0.8067): 865.48 ± 0.47 kg/m3
mass density (313.1 K, 18996 kPa, x2 = 0.4651): 847.39 ± 0.45 kg/m3
mass density (313.1 K, 19027 kPa, x2 = 0.8067): 868.98 ± 0.47 kg/m3
mass density (313.1 K, 19034 kPa, x2 = 0.9757): 845.17 ± 0.55 kg/m3
mass density (313.1 K, 19996 kPa, x2 = 0.8067): 872.2 ± 0.47 kg/m3
mass density (313.1 K, 20005 kPa, x2 = 0.9757): 852.85 ± 0.54 kg/m3
mass density (313.1 K, 20038 kPa, x2 = 0.4651): 848.66 ± 0.45 kg/m3
mass density (313.1 K, 20988 kPa, x2 = 0.4651): 849.83 ± 0.45 kg/m3
mass density (313.1 K, 20988 kPa, x2 = 0.9757): 860.09 ± 0.54 kg/m3
mass density (313.1 K, 21011 kPa, x2 = 0.8067): 875.4 ± 0.47 kg/m3
mass density (313.1 K, 21994 kPa, x2 = 0.9757): 867.1 ± 0.53 kg/m3
mass density (313.1 K, 22004 kPa, x2 = 0.8067): 878.43 ± 0.47 kg/m3
mass density (313.1 K, 22029 kPa, x2 = 0.4651): 851.07 ± 0.45 kg/m3
mass density (313.1 K, 22839 kPa, x2 = 0.9757): 872.7 ± 0.53 kg/m3
mass density (313.1 K, 22988 kPa, x2 = 0.4651): 852.24 ± 0.45 kg/m3
mass density (313.1 K, 22990 kPa, x2 = 0.8067): 881.33 ± 0.47 kg/m3
mass density (313.11 K, 3017 kPa, x2 = 0.0816): 805.83 ± 0.44 kg/m3
mass density (313.11 K, 4040 kPa, x2 = 0.0816): 806.66 ± 0.44 kg/m3
mass density (313.11 K, 5020 kPa, x2 = 0.0816): 807.44 ± 0.44 kg/m3
mass density (313.11 K, 6033 kPa, x2 = 0.0816): 808.27 ± 0.44 kg/m3
mass density (313.11 K, 6980 kPa, x2 = 0.0816): 809.01 ± 0.44 kg/m3
mass density (313.11 K, 8003 kPa, x2 = 0.0816): 809.81 ± 0.44 kg/m3
mass density (313.11 K, 9050 kPa, x2 = 0.0816): 810.62 ± 0.44 kg/m3
mass density (313.11 K, 10006 kPa, x2 = 0.0816): 811.35 ± 0.44 kg/m3
mass density (313.11 K, 10023 kPa, x2 = 0.9216): 783.1 ± 0.77 kg/m3
mass density (313.11 K, 11007 kPa, x2 = 0.9216): 796.3 ± 0.59 kg/m3
mass density (313.11 K, 11029 kPa, x2 = 0.0816): 812.13 ± 0.44 kg/m3
mass density (313.11 K, 12014 kPa, x2 = 0.9216): 807.61 ± 0.56 kg/m3
mass density (313.11 K, 12040 kPa, x2 = 0.0816): 812.89 ± 0.44 kg/m3
mass density (313.11 K, 13034 kPa, x2 = 0.0816): 813.62 ± 0.44 kg/m3
mass density (313.11 K, 13034 kPa, x2 = 0.9216): 817.54 ± 0.54 kg/m3
mass density (313.11 K, 14013 kPa, x2 = 0.9216): 826.1 ± 0.53 kg/m3
mass density (313.11 K, 14032 kPa, x2 = 0.0816): 814.36 ± 0.44 kg/m3
mass density (313.11 K, 15008 kPa, x2 = 0.0816): 815.08 ± 0.45 kg/m3
mass density (313.11 K, 15032 kPa, x2 = 0.9216): 834.15 ± 0.52 kg/m3
mass density (313.11 K, 16011 kPa, x2 = 0.9216): 841.25 ± 0.51 kg/m3
mass density (313.11 K, 16019 kPa, x2 = 0.0816): 815.8 ± 0.45 kg/m3
mass density (313.11 K, 17000 kPa, x2 = 0.9216): 847.91 ± 0.51 kg/m3
mass density (313.11 K, 17024 kPa, x2 = 0.0816): 816.51 ± 0.45 kg/m3
mass density (313.11 K, 18011 kPa, x2 = 0.9216): 854.26 ± 0.5 kg/m3
mass density (313.11 K, 18058 kPa, x2 = 0.0816): 817.22 ± 0.45 kg/m3
mass density (313.11 K, 18990 kPa, x2 = 0.0816): 817.88 ± 0.45 kg/m3
mass density (313.11 K, 19003 kPa, x2 = 0.9216): 860.12 ± 0.5 kg/m3
mass density (313.11 K, 20009 kPa, x2 = 0.9216): 865.74 ± 0.5 kg/m3
mass density (313.11 K, 20043 kPa, x2 = 0.0816): 818.6 ± 0.45 kg/m3
mass density (313.11 K, 20983 kPa, x2 = 0.9216): 870.88 ± 0.49 kg/m3
mass density (313.11 K, 21042 kPa, x2 = 0.0816): 819.28 ± 0.45 kg/m3
mass density (313.11 K, 22024 kPa, x2 = 0.0816): 819.97 ± 0.45 kg/m3
mass density (313.11 K, 23035 kPa, x2 = 0.0816): 820.66 ± 0.45 kg/m3
